One series relates to galectins. Conditions: cited from earlier work.
The next series is described as follows: aqueous solubility. The series is classed as physicochemical. Conditions: water.
The target of a further series is Galectin-3 (Homo sapiens, UniProt P17931). As to the kind of experiment: fluorescence anisotropy assay, inhibition of galectin / fluorescein tagged saccharide probe interaction. The series is classed as binding. The note with it: for Kd: fluorescence anisotropy; for affinity towards the corresponding galectin (in words): pro-drug itself. In general terms: In fluorescence polarisation assays a small probe gives low polarisation when free and higher when bound to something large.
Galectin-3, sequence (P17931 whole entry): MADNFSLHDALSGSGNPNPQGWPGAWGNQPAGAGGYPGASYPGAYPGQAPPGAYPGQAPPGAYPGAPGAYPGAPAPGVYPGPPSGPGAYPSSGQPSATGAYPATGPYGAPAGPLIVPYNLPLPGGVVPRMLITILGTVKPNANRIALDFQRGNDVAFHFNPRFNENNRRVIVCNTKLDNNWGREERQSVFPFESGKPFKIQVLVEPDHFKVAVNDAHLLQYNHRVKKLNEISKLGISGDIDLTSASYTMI

A short description of series [1]: mouse PK experiments, plasma exposure of Ref 1 after p.o. administration. The series is classed as in vivo. The note with it: for exposure in mice PK after per oral administration: mouse, p.o., 20, 40, 80 and 160 mg/kg, plasma exposure of Ref 1.

≈ marks a conversion by molar mass, not a printed value. Bounds are passed on as bounds.

For the molecule `O=C[C@H](O)[C@@H](O)[C@@H](O)[C@H](O)CO` [D-galactose], the “affinity, times lower than lactose” value with galectins (relative to lactose) is 50-100 times.
A word on the solubility: it is the dissolved amount per volume that the medium holds. A low value points to a poorly soluble substance. The term Kd denotes the equilibrium constant for the complex coming apart. Regarding `O=P(O)(O)OC[C@H]1O[C@H](Sc2cncc(Br)c2)[C@H](O)[C@@H](n2cc(-c3cc(F)c(F)c(F)c3)nn2)[C@H]1O` [Example 1, 5-Bromopyridin-3-yl 3-deoxy-3-[4-(3,4,5-trifluorophenyl)-1H-1,2,3-triazol-1-yl]-6-O-phospho-1-thio-α-D-galactopyranoside], the solubility in the series “aqueous solubility” is 8500 µg/mL (≈ 13.9 mM). Besides, at Galectin-3, binding was characterised by a dissociation constant (Kd) of 35 µM and the “affinity towards the corresponding galectin (in words)” value is reported as “low”.
`O=P(O)(O)O[C@@H]1[C@@H](n2cc(-c3cc(F)c(F)c(F)c3)nn2)[C@@H](O)[C@@H](CO)O[C@@H]1Sc1cncc(Br)c1` [Example 2, 5-Bromopyridin-3-yl 3-deoxy-3-[4-(3,4,5-trifluorophenyl)-1H-1,2,3-triazol-1-yl]-2-O-phospho-1-thio-α-D-galactopyranoside] showed a solubility in the series “aqueous solubility” of 9800 µg/mL (≈ 16 mM). Also, the Kd at Galectin-3 came out at 0.006 µM.
`O=P(O)(O)O[C@@H]1[C@@H](n2cc(-c3cc(F)c(F)c(F)c3)nn2)[C@@H](O)[C@@H](CO)O[C@@H]1Sc1ccc(Cl)c(Cl)c1` [Example 3, 3,4-Dichlorophenyl 3-deoxy-3-[4-(3,4,5-trifluorophenyl)-1H-1,2,3-triazol-1-yl]-2-O-phospho-1-thio-α-D-galactopyranoside]: the affinity on Galectin-3, expressed as Kd, was 0.007 µM.
For `O=S(=O)(O)OC1C(n2cc(-c3cc(F)c(F)c(F)c3)nn2)[C@@H](O)C(CO)O[C@@H]1Sc1ccc(Cl)c(Cl)c1` (stereo partly drawn) [Example 4, 3,4-Dichlorphenyl 3-Deoxy-3-[4-(3,4,5-trifluorophenyl)-1H-1,2,3-triazol-1-yl]-2-O-sulfo-1-thio-α-D-galactopyranoside], the Kd on Galectin-3 was 0.014 µM.
`O=S(=O)(O)O[C@@H]1[C@@H](n2cc(-c3cc(F)c(F)c(F)c3)nn2)[C@@H](O)[C@@H](CO)O[C@@H]1Sc1cncc(Br)c1` [Example 5, 5-Bromopyridin-3-yl 3-Deoxy-3-[4-(3,4,5-trifluorophenyl)-1H-1,2,3-triazol-1-yl]-2-O-sulfo-1-thio-α-D-galactopyranoside] yielded a Kd at Galectin-3 of 0.004 µM.
Regarding `O=S(=O)(O)OC[C@H]1O[C@H](Sc2cncc(Br)c2)[C@H](O)[C@@H](n2cc(-c3cc(F)c(F)c(F)c3)nn2)[C@H]1O` [Example 6, 5-Bromopyridin-3-yl 3-Deoxy-3-[4-(3,4,5-trifluorophenyl)-1H-1,2,3-triazol-1-yl]-6-O-sulfo-1-thio-α-D-galactopyranoside], in the series “aqueous solubility”, the concentration in solution (solubility) was 9600 µg/mL (≈ 15.7 mM). Also, binding on Galectin-3 was put at a Kd of 27 µM.
In “aqueous solubility”, `O=P(O)(O)OCOC[C@H]1O[C@H](Sc2cncc(Br)c2)[C@H](O)[C@@H](n2cc(-c3cc(F)c(F)c(F)c3)nn2)[C@H]1O` [Example 7, 5-Bromopyridin-3-yl 3-deoxy-3-[4-(3,4,5-trifluorophenyl)-1H-1,2,3-triazol-1-yl]-6-O-[(phosphonooxy)methyl]-1-thio-α-D-galactopyranoside] came in with a solubility greater than 10000 µg/mL. Also, in series [1], the “exposure in mice PK after per oral administration” value is “dose correlated exposure”. For the same molecule, on Galectin-3, the Kd stood at 15 µM and the “affinity towards the corresponding galectin (in words)” value is listed as “low”.
Molecule `O=P(O)(O)OCO[C@@H]1[C@@H](n2cc(-c3cc(F)c(F)c(F)c3)nn2)[C@@H](O)[C@@H](CO)O[C@@H]1Sc1cncc(Br)c1` [Example 8, 5-Bromopyridin-3-yl 3-deoxy-3-[4-(3,4,5-trifluorophenyl)-1H-1,2,3-triazol-1-yl]-2-O-[(phosphonooxy)methyl]-1-thio-α-D-galactopyranoside] registered a solubility in the series “aqueous solubility” greater than 10000 µg/mL. The “exposure in mice PK after per oral administration” value in series [1] is reported as “dose correlated exposure”. The molecule also returned a Kd on Galectin-3 of 0.01 µM.
In the series “aqueous solubility”, `O=P(O)(O)OCO[C@@H]1[C@@H](n2cc(-c3cc(F)c(Cl)c(F)c3)nn2)[C@@H](O)[C@@H](CO)O[C@@H]1Sc1cncc(Br)c1` [Example 9, 5-Bromopyridin-3-yl 3-[4-(4-chloro-3,5-difluorophenyl)-1H-1,2,3-triazol-1-yl]-3-deoxy-2-O-[(phosphonooxy)methyl]-1-thio-α-D-galactopyranoside] showed a solubility of 800 µg/mL (≈ 1.21 mM). Also, the Kd at Galectin-3 is 0.007 µM.
`OC[C@H]1O[C@H](Sc2cncc(Br)c2)[C@H](O)[C@@H](n2cc(-c3cc(F)c(F)c(F)c3)nn2)[C@H]1O` [Ref 1, 5-Bromopyridin-3-yl 3-deoxy-3-[4-(3,4,5-trifluorophenyl)-1H-1,2,3-triazol-1-yl]-1-thio-α-D-galactopyranoside, reference compound] gave a solubility in the series “aqueous solubility” of 7 µg/mL (≈ 0.0131 mM). Moreover, the oral availability entry in series [1] (mouse PK, some formulations, dosed above 10 mg/kg) is “limited oral availability”.
Turning to `OC[C@H]1O[C@H](Sc2ccc(Cl)c(Cl)c2)[C@H](O)[C@@H](n2cc(-c3cc(F)c(F)c(F)c3)nn2)[C@H]1O` [Ref 2, 3,4-Dichlorophenyl 3-deoxy-3-[4-(3,4,5-trifluorophenyl)-1H-1,2,3-triazol-1-yl]-1-thio-α-D-galactopyranoside, reference compound], in the series “aqueous solubility”, the solubility is 37 µg/mL (≈ 0.0708 mM).
Same read-out and setting: as for `OC[C@H]1O[C@H](Sc2cncc(Br)c2)[C@H](O)[C@@H](n2cc(-c3cc(F)c(Cl)c(F)c3)nn2)[C@H]1O` [Ref 3, 5-Bromopyridin-3-yl 3-deoxy-3-[4-(4-chloro-3,5-difluorophenyl)-1H-1,2,3-triazol-1-yl]-1-thio-α-D-galactopyranoside, reference compound], the figure is 7 µg/mL (≈ 0.0127 mM).
As to `OC[C@H]1O[C@@H](O[C@H]2[C@H](O)[C@@H](O)C(O)O[C@@H]2CO)[C@H](O)[C@@H](O)[C@H]1O` (stereo partly shown) [lactose], the Kd on galectins (read-out: Kd, all galectins) was 500 to 1000 µM.

Source of the values: patent publication US20210380623A1, “PRODRUG GALACTOSIDE INHIBITOR OF GALECTINS” (GALECTO BIOTECH AB, priority 2018, published 2021).
